# From US12612416B2, “Modulators of cystic fibrosis transmembrane conductance regulator” (VERTEX PHARMACEUTICALS INCORPORATED, priority 2020, dated 2026)
# Read-outs that look alike come from different tables or passages of the source.
# How the values were obtained:
# [1] = target: T1, CFTR-mediated short-circuit current in F508del/MF-HBE cells (Homo sapiens, UniProt P13569, DEL508-508); assay: HBE assay: Ussing chamber assay of CFTR-mediated short-circuit currents; assay type: cell-based; conditions: 20% human serum; for HBE Activity at 10 μM: single fixed concentration of 10 μM in combination with 1 μM Ivacaftor; for HBE Activity at 10 μM / EC50: 18-24 hours; for HBE Max. activity / EC50: F508del/MF-HBE; for HBE Max. activity: in combination with 1 μM Ivacaftor, compared to known Vertex corrector with 18 μM Tezacaftor and 1 μM Ivacaftor; for EC50: range of concentrations in combination with 1 μM Ivacaftor
# T1 construct: endogenous in cells; host or cells: primary human bronchial epithelial cells from CF subjects (F508del/MF)
# T1 sequence (P13569 with tags, fused parts or gaps DEL508-508): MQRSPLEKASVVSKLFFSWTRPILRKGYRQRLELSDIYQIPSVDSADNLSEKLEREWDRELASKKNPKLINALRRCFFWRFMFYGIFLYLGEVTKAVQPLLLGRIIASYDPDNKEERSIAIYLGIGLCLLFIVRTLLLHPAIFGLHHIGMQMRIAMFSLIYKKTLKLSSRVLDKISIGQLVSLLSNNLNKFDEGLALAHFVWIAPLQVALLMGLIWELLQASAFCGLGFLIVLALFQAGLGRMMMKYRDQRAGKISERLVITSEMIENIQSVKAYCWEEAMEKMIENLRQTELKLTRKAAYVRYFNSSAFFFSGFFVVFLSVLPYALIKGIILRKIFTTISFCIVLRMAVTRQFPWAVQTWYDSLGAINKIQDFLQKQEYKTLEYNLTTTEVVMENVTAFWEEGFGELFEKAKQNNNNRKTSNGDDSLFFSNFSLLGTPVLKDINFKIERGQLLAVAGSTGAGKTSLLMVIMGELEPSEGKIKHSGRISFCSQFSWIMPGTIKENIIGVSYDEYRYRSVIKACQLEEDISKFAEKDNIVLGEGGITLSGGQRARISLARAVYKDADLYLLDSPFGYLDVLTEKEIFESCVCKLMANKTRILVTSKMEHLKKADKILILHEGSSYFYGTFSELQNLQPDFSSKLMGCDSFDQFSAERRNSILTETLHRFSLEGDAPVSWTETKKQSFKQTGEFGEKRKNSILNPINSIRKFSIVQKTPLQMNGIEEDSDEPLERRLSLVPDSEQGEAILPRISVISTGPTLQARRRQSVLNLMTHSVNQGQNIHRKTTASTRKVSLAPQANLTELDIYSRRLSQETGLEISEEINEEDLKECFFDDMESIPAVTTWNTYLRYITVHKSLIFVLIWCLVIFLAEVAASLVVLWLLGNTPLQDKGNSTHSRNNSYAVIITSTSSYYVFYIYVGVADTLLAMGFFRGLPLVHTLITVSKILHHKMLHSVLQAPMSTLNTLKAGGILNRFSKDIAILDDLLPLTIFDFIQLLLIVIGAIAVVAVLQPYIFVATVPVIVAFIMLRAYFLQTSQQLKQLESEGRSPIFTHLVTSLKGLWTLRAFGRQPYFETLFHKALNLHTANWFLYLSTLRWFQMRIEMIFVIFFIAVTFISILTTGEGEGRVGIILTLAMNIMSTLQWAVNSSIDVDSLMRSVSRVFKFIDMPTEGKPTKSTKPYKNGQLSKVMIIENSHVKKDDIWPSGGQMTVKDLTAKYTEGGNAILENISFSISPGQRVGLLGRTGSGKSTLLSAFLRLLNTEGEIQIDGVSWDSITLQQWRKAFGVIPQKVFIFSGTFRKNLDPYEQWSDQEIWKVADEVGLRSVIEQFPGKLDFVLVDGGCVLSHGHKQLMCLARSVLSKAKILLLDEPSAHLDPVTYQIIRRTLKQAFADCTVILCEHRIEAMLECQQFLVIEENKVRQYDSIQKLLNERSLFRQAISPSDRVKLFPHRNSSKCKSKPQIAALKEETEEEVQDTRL
# Experimental: Ussing chamber experiments were performed using human bronchial epithelial (HBE) cells derived from CF subjects heterozygous for F508del and a minimal function CFTR mutation (F508del/MF-HBE) and cultured as previously described (Neuberger T, Burton B, Clark H, Van Goor F Methods Mol Biol 2011:741:39-54). After four days the apical media was removed, and the cells were grown at an air liquid interface for >14 days prior to use.
# To isolate the CFTR-mediated short-circuit (ISC) current, F508del/MF-HBE grown on Costar® Snapwell™ cell culture inserts were mounted in an Ussing chamber and the transepithelial ISC was measured under voltage-clamp recording conditions (Vhold=0 mV) at 37° C. The basolateral solution contained (in mM) 145 NaCl, 0.83K2HPO4, 3.3 KH2PO4, 1.2 MgCl2, 1.2 CaCl2), 10 Glucose, 10 HEPES (pH adjusted to 7.4 with NaOH) and the apical solution contained (in mM) 145 NaGluconate, 1.2 MgCl2, 1.2 CaCl2), 10 glucose, 10 HEPES (pH adjusted to 7.4 with NaOH) and 30 μM amiloride to block the epithelial sodium channel. Forskolin (20 μM) was added to the apical surface to activate CFTR, followed by apical addition of a CFTR inhibitor cocktail consisting of BPO, GlyH-101, and CFTR inhibitor 172 (each at 20 μM final assay concentration) to specifically isolate CFTR currents. The CFTR-mediated ISC (μA/cm^2) for each condition was determined from the peak forskolin response to the steady-state current following inhibition.
# The activity of the CFTR corrector compounds on the CFTR-mediated ISC was determined in Ussing chamber studies as described above. The F508del/MF-HBE cell cultures were either incubated with the corrector compounds at a range of concentrations in combination with 1 μM Ivacaftor or were incubated with the corrector compounds at a single fixed concentration of 10 μM in combination with 1 μM Ivacaftor for 18-24 hours at 37° C. and in the presence of 20% human serum. The concentration of corrector compounds with 1 μM Ivacaftor during the 18-24 hours incubations was kept constant throughout the Ussing chamber measurement of the CFTR-mediated ISC to ensure compounds were present throughout the entire experiment.
# [2] = amide bond, DMF
# [3] = target: CFTR-mediated chloride transport in human intestinal epithelial enteroid cells (Homo sapiens, UniProt P13569); assay: Membrane potential dye, Enteroid Assay A; assay type: cell-based
# Chain of CFTR-mediated chloride transport in human intestinal epithelial enteroid cells (P13569 with tags, fused parts or gaps DEL508-508): as above
# Experimental: Base medium (ADF+++) consisted of Advanced DMEM/Ham's F12, 2 mM Glutamax, 10 mM HEPES, […] penicillin/streptomycin.
# Intestinal enteroid maintenance medium (IEMM) consisted of ADF+++, 1×B27 supplement, 1×N2 supplement, 1.25 mM N-acetyl cysteine, 10 mM Nicotinamide, 50 ng/mL hEGF, 10 nM Gastrin, 1 μg/mL hR-spondin-1, 100 ng/mL hNoggin, TGF-b type 1 inhibitor A-83-01, 100 μg/mL Primocin, 10 μM P38 MAPK inhibitor SB202190.
# Bath 1 Buffer consisted of 1 mM MgCl2, 160 mM NaCl, 4.5 mM KCl, 10 mM HEPES, 10 mM Glucose, 2 mM CaCl2).
# Chloride Free Buffer consisted of 1 mM Magnesium Gluconate, 2 mM Calcium Gluconate, 4.5 mM Potassium Gluconate, 160 mM Sodium Gluconate, 10 mM HEPES, 10 mM Glucose.
# BathI Dye Solution consisted of Bath 1 Buffer, 0.04% Pluronic F127, 20 μM Methyl Oxonol, 30 μM CaCCinh-A01, 30 μM Chicago Sky Blue.
# Chloride Free Dye Solution consisted of Chloride Free Buffer, 0.04% Pluronic F127, 20 μM Methyl Oxonol, 30 μM CaCCinh-A01, 30 μM Chicago Sky Blue.
# Chloride Free Dye Stimulation Solution consisted of Chloride Free Dye Solution, 10 μM forskolin, 100 μM IBMX, and 300 nM Compound III.
# Human intestinal epithelial enteroid cells were obtained from the Hubrecht Institute for Developmental Biology and Stem Cell Research, Utrecht, The Netherlands and expanded in T-Flasks as previously described (Dekkers J F, Wiegerinck C L, de Jonge H R, Bronsveld I, Janssens H M, de Winter-de Groot K M, Brandsma A M, de Jong N W M, Bijvelds M J C, Scholte B J, Nieuwenhuis E E S, van den Brink S, Clevers H, van der Ent C K, Middendorp S and M Beekman J M. A functional CFTR assay using primary cystic fibrosis intestinal organoids. Nat Med. 2013 July; 19(7):939-45.).
# Cells were recovered in cell recovery solution, collected by centrifugation at 650 rpm for 5 minutes at 4° C., resuspended in TrypLE and incubated for 5 minutes at 37° C. Cells were then collected by centrifugation at 650 rpm for 5 minutes at 4° C. and resuspended in IEMM containing 10 μM ROCK inhibitor (RI). The cell suspension was passed through a 40 μm cell strainer and resuspended at 1×10^6 cells/mL in IEMM containing 10 μM RI. Cells were seeded at 5000 cells/well into multi-well plates and incubated for overnight at 37° C., 95% humidity and 5% CO2 prior to assay.
# Enteroid cells were incubated with test compound in IEMM for 18-24 hours at 37° C., 95% humidity and 5% C02. […] Briefly, cells were washed 5 times in Bath 1 Buffer. Bath 1 Dye Solution was added, and the cells were incubated for 25 minutes at room temperature. Following dye incubation, cells were washed 3 times in Chloride Free Dye Solution. Chloride transport was initiated by addition of Chloride Free Dye Stimulation Solution and the fluorescence signal was read for 15 minutes. […] Chloride transport was then expressed as a percentage of the chloride transport following treatment with 3 μM (S)—N-((6-aminopyridin-2-yl)sulfonyl)-6-(3-fluoro-5-isobutoxyphenyl)-2-(2,2,4-trimethylpyrrolidin-1-yl)nicotinamide, 3 μM (R)-1-(2,2-difluorobenzo[d][1,3]dioxol-5-yl)-N-(1-(2,3-dihydroxypropyl)-6-fluoro-2-(1-hydroxy-2-methylpropan-2-yl)-1H-indol-5-yl)cyclopropanecarboxamide and 300 nM acute N-[2,4-bis(1,1-dimethylethyl)-5-hydroxyphenyl]-1,4-dihydro-4-oxoquinoline-3-carboxamide triple combination control (% Activity).
Compound,HBE Activity at 10 μM [1],HBE Max. activity [1],EC50 [1],further results
"Cc1cccc(C)c1-c1cc2nc(n1)NS(=O)(=O)c1cccc(c1)C(=O)N([C@H]1CC3(C1)C[C@H](C(C)(C)O)C3)[C@H](CC(C)(C)C)CC2 (single isomer, unassigned) [Compound 65]",+++ (+++ is >60%),–,–,–
"Cc1cccc(C)c1-c1cc2nc(n1)NS(=O)(=O)c1cccc(c1)C(=O)N([C@H]1CC3(C1)C[C@H](C(C)(C)O)C3)[C@H](CC(C)(C)C)CC2 (single isomer, unassigned) [Compound 66]",+++ (+++ is >60%),–,–,–
"Cc1cccc(C)c1-c1cc2nc(n1)NS(=O)(=O)c1cccc(c1)C(=O)NCC1(CCCCC1)CN2 [Compound 40, 6-(2,6-Dimethylphenyl)-2,2-dioxo-spiro[2 λ6-thia-3,5,9,13,20-pentazatricyclo[13.3.1.14,8]icosa-1(19),4(20),5,7,15,17-hexaene-11,1′-cyclohexane]-14-one]",–,–,–,"ring closure, yield after HPLC ([2]; from Cc1cccc(C)c1-c1cc(NCC2(CN)CCCCC2)nc(NS(=O)(=O)c2cccc(C(=O)O)c2)n1, 14-membered ring, HATU/Et3N, 58.9 mM, 0.5 h): 33%; Ent. A Max Activity ([3]; % of chloride transport of triple combination control: 3 μM (S)-N-((6-aminopyridin-2-yl)sulfonyl)-6-(3-fluoro-5-isobutoxyphenyl)-2-(2,2,4-trimethylpyrrolidin-1-yl)nicotinamide, 3 μM tezacaftor, 300 nM acute ivacaftor): + (+ is <30%); EC50 ([3]; enteroid cells, 18-24 hours incubation, acute 10 μM forskolin and 300 nM ivacaftor, read-out: Ent. A EC50): 1000 to 3000 nM"
Cc1cccc(C)c1-c1cc2nc(n1)NS(=O)(=O)c1cccc(c1)C(=O)N(Cc1ncc(OC(C)C)cn1)[C@H](CC(C)C)CC2 [Compound 58],–,+++ (+++ is >60%),< 1000 nM,–
Cc1cccc(C)c1-c1cc2nc(n1)NS(=O)(=O)c1cccc(c1)C(=O)N(Cc1ncc(OC3CCC3)cn1)[C@H](CC(C)C)CC2 [Compound 59],–,+++ (+++ is >60%),< 1000 nM,–
"Cc1cccc(C)c1-c1cc2nc(n1)NS(=O)(=O)c1cccc(c1)C(=O)N(Cc1nccc(N(C)C(C)C)n1)[C@H](CC(C)C)CC2 [Compound 60, (11S)-6-(2,6-dimethylphenyl)-11-isobutyl-12-[[4-[isopropyl(methyl)amino]pyrimidin-2-yl]methyl]-2,2-dioxo-2λ^6-thia-3,5,12,19-tetrazatricyclo[12.3.1.14,8]nonadeca-1(18),4(19),5,7,14,16-hexaen-13-one]",–,+++ (+++ is >60%),< 1000 nM,"ring closure, yield after HPLC ([2]; from Cc1cccc(C)c1-c1cc(CC[C@@H](CC(C)C)NCc2nccc(N(C)C(C)C)n2)nc(NS(=O)(=O)c2cccc(C(=O)O)c2)n1, 13-membered ring, HATU/DIEA, 12.4 mM, 25.0 °C, 2.0 h): 49%"
"Cc1cccc(C)c1-c1cc2nc(n1)NS(=O)(=O)c1cccc(c1)C(=O)N(Cc1ncc(OC(C)C)cn1)[C@H](CC(C)(C)C)CC2 [Compound 62, (11S)-6-(2,6-Dimethylphenyl)-11-(2,2-dimethylpropyl)-12-[(5-isopropoxypyrimidin-2-yl)methyl]-2,2-dioxo-2 λ6-thia-3,5,12,19-tetrazatricyclo[12.3.1.14,8]nonadeca-1(18),4(19),5,7,14,16-hexaen-13-one]",–,+++ (+++ is >60%),< 1000 nM,"ring closure, yield after HPLC ([2]; from Cc1cccc(C)c1-c1cc(CC[C@@H](CC(C)(C)C)NCc2ncc(OC(C)C)cn2)nc(NS(=O)(=O)c2cccc(C(=O)O)c2)n1, 13-membered ring, CDMT/NMM, 47.5 mM, 18.0 h): 79%"
Cc1cccc(C)c1-c1cc2nc(n1)NS(=O)(=O)c1cccc(c1)C(=O)N(C1CC3(CC3)C1)[C@H](CC(C)(C)C)CC2 [Compound 63],+++ (+++ is >60%),–,–,–
"Cc1cccc(C)c1-c1cc2nc(n1)NS(=O)(=O)c1cccc(c1)C(=O)N(Cc1ncc(OC3CCC3)cn1)[C@H](CC(C)(C)C)CC2 [Compound 64, (11S)-12-[[5-(Cyclobutoxy)pyrimidin-2-yl]methyl]-6-(2,6-dimethylphenyl)-11-(2,2-dimethylpropyl)-2,2-dioxo-2λ6-thia-3,5,12,19-tetrazatricyclo[12.3.1.14,8]nonadeca-1(18),4(19),5,7,14,16-hexaen-13-one]",+++ (+++ is >60%),–,–,"ring closure, yield after HPLC ([2]; from Cc1cccc(C)c1-c1cc(CC[C@@H](CC(C)(C)C)NCc2ncc(OC3CCC3)cn2)nc(NS(=O)(=O)c2cccc(C(=O)O)c2)n1, 13-membered ring, CDMT/NMM, 44.1 mM, 17.0 h): 73%"
